According to paper PMC8880564, “Design, Synthesis, and Biological Evaluation of a Novel VEGFR-2 Inhibitor Based on a 1,2,5-Oxadiazole-2-Oxide Scaffold with MAPK Signaling Pathway Inhibition” (Pharmaceuticals, 2022):

Columns and labels:
cancer cells = test: MTT anti-proliferative test of des-NO-releasing compounds; type: cell-based, human; conditions: at concentrations as high as 50 µM
Procedure: (§1) In addition, the morphological changes in 12b-treated cancer cell lines at concentrations of 6.25 and 12.50 µM are shown in Figure 6.
(§2) According to the procedures of Skehan et al. (with minor modifications), the cancer or normal cells were seeded in a 96-well plate (100 µL/well). After overnight incubation at 37 °C and 5% CO2, the cells were incubated with 50 µM of each tested compound or DMSO (0.5% v/v). After 48 h of incubation, MTT (3-(4,5-dimethylthiazoyl)-2,5-diphenyl-tetrazolium bromide) 5 mg/mL Phosphate-Buffered Saline (PBS) was added, and the plate was incubated for 4 h. After that, acidified sodium dodecyl sulfate (SDS) solution (10% SDS containing 0.01N HCl in 1× PBS) was used to solubilize formazan crystals. The absorbance was measured after 14 h of incubation at λ570–630 nm by a Biotek plate reader (Gen5™).

HT-29 = test: MTT cell viability assay; type: cell-based; conditions: Homo sapiens, Colon, 48 h, ± SD of triplicates
Procedure: as §1, §2

SKOV-3 = test: MTT cell viability assay; type: cell-based; conditions: Homo sapiens, SK-OV-3, Ovarian, 48 h, ± SD of triplicates
Procedure: as §1, §2

A2780 = test: MTT cell viability assay; type: cell-based; conditions: Homo sapiens, Ovarian, 48 h, ± SD of triplicates
Procedure: as §1, §2

HepG2 = test: MTT cell viability assay; type: cell-based; conditions: Homo sapiens, Liver, 48 h, ± SD of triplicates
Procedure: as §1, §2

A2780CP = test: MTT cell viability assay; type: cell-based; conditions: Homo sapiens, A2780C/P, Ovarian, 48 h, ± SD of triplicates
Procedure: as §1, §2

MCF-7 = test: MTT cell viability assay; type: cell-based; conditions: Homo sapiens, MCF7, Breast, 48 h, ± SD of triplicates
Procedure: as §1, §2

MDA-MB-231 = test: MTT cell viability assay; type: cell-based; conditions: Homo sapiens, Breast, 48 h, ± SD of triplicates
Procedure: as §1, §2

| IC50 (HT-29) | IC50 (SKOV-3) | IC50 (A2780) | IC50 (HepG2) | IC50 (A2780CP) | IC50 (MCF-7) | IC50 (MDA-MB-231) | SMILES | inhibition of the proliferation of cancer cells (cancer cells) |
| --- | --- | --- | --- | --- | --- | --- | --- | --- |
| – | – | – | – | – | – | – | Nc1ccc(Nc2nc(C(F)(F)F)nc3c2cnn3-c2ccc(Br)cc2)cc1 [15a, N1-(1-(4-bromophenyl)-6-(trifluoromethyl)-1H-pyrazolo[3,4-d]pyrimidin-4-yl)benzene-1,4-diamine] | did not inhibit the proliferation of cancer cells |
| – | – | – | – | – | – | – | Cc1nn(-c2ccc(Br)cc2)c2nc(C(F)(F)F)nc(Nc3ccc(N)cc3)c12 [15b, N1-(1-(4-bromophenyl)-3-methyl-6-(trifluoromethyl)-1H-pyrazolo[3,4-d]pyrimidin-4-yl)benzene-1,4-diamine] | did not inhibit the proliferation of cancer cells |
| 11 ± 0.2 µM | 16.9 ± 0.2 µM | 10.5 ± 0.5 µM | 14 ± 0.4 µM | 15.2 ± 0.1 µM | 5.1 ± 0.4 µM | 16.6 ± 0.3 µM | CNC(=O)c1cc(Oc2ccc(NC(=O)Nc3ccc(Cl)c(C(F)(F)F)c3)cc2)ccn1 [Sorafenib, sorafenib, reference compound] | – |
